Experimental data published in PubChem BioAssay (NCI).
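Grown in 96-well plates, cells were treated for 48 hours with each compound at five concentrations. Insufficient inhibition: endpoint recorded as highest concentration tested. GI50 is the concentration that inhibits growth by half. TGI: concentration producing complete growth inhibition.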

Legend:
Assay in all cases: NCI tumour cell line growth inhibition, 48 h
NCI-H23 lung = tested on: NCI-H23 lung
NCI-H522 lung = tested on: NCI-H522 lung
A498 renal = tested on: A498 renal
SK-MEL-28 melanoma = tested on: SK-MEL-28 melanoma
MOLT-4 leukemia = tested on: MOLT-4 leukemia
RPMI-8226 leukemia = tested on: RPMI-8226 leukemia
SF-295 CNS = tested on: SF-295 CNS
CCRF-CEM leukemia = tested on: CCRF-CEM leukemia
OVCAR-5 ovarian = tested on: OVCAR-5 ovarian
SR leukemia = tested on: SR leukemia

Row | SMILES | GI50 (NCI-H23 lung) | TGI (NCI-H23 lung) | GI50 (NCI-H522 lung) | TGI (NCI-H522 lung) | GI50 (A498 renal) | TGI (A498 renal) | GI50 (SK-MEL-28 melanoma) | TGI (SK-MEL-28 melanoma) | GI50 (MOLT-4 leukemia) | TGI (MOLT-4 leukemia) | GI50 (RPMI-8226 leukemia) | TGI (RPMI-8226 leukemia) | GI50 (SF-295 CNS) | TGI (SF-295 CNS) | GI50 (CCRF-CEM leukemia) | TGI (CCRF-CEM leukemia) | GI50 (OVCAR-5 ovarian) | TGI (OVCAR-5 ovarian) | GI50 (SR leukemia) | TGI (SR leukemia)
1 | O=C(Nc1cccc(-n2cc(-c3ccncc3)c(-c3ccc(Cl)c(O)c3)n2)c1)Nc1cc(C(F)(F)F)cc(C(F)(F)F)c1 | 998 nM | 2.86 µM | 707 nM | 2.1 µM | 595 nM | 2.3 µM | 807 nM | 1.61 µM | 1150 nM | 4.36 µM | 434 nM | 10.6 µM | 618 nM | 1.65 µM | 789 nM | 6.78 µM | 846 nM | 1.88 µM | 876 nM | 3.22 µM
2 | Cc1ccccc1OCC(O)CN1CCN(c2ccc(Cl)cc2)CC1 (stereo not drawn) | 15800 nM | 34.5 µM | 14100 nM | 29.2 µM | 11900 nM | 24.6 µM | 18700 nM | 33.5 µM | 14700 nM | 57.5 µM | 16300 nM | 40.8 µM | 14400 nM | 29.6 µM | 16400 nM | 44.1 µM | 17400 nM | 34.5 µM | 14300 nM | 40.1 µM
3 | CSC1=C(N)C(=O)c2[nH]cc(CO)c2C1=N | 109 nM | 0.344 µM | 155 nM | 0.364 µM | 132 nM | 0.269 µM | 267 nM | 0.618 µM | 204 nM | 0.475 µM | 293 nM | 1.2 µM | 159 nM | 0.309 µM | 223 nM | 0.762 µM | 176 nM | 0.326 µM | 221 nM | 0.659 µM
4 | COc1cc(C(=O)c2c(-c3ccccc3)oc3c(OC)cccc23)cc(OC)c1OC | 106 nM | 16.8 µM | 34.8 nM | > 34.4 µM | 21.2 nM | 0.0696 µM | 13800 nM | > 100 µM | 345 nM | > 100 µM | 112 nM | > 100 µM | 36.3 nM | 1.96 µM | 53.2 nM | > 100 µM | 158 nM | > 100 µM | 36.3 nM | > 100 µM
5 | CCOc1cc2c(C(=O)CC)c(O)ccc2o1 |  | > 100 µM |  | > 100 µM |  | > 94.4 µM |  | > 58.4 µM |  | > 100 µM |  | > 100 µM |  | > 100 µM |  | > 85.1 µM |  | > 100 µM |  | > 100 µM
6 | CCOC(=O)CC[C@H](NC(=O)c1nc[nH]c1[N+](=O)[O-])C(=O)OCC |  | > 100 µM |  | > 100 µM |  | > 100 µM |  | > 100 µM |  | > 100 µM |  | > 100 µM |  | > 100 µM |  | > 100 µM |  |  |  | > 100 µM
7 | O=C1CCCCC1S(=O)(=O)c1ccccc1 (stereo not drawn) |  | > 100 µM |  | > 100 µM |  | > 100 µM |  | > 100 µM |  | > 100 µM |  | > 100 µM |  | > 100 µM |  | > 100 µM |  | > 100 µM |  | > 100 µM
8 | N/N=C(/C(=O)Nc1cccc(Cl)c1)C(C(=O)c1ccc(O)cc1O)C1OC(=O)c2ccccc21 (stereo not drawn) |  | > 100 µM |  | > 100 µM |  | > 100 µM |  | > 100 µM |  | > 100 µM |  | > 100 µM |  | > 100 µM |  | > 100 µM |  | > 100 µM |  | > 100 µM
9 | O=C(/C=C/Sc1cc(C(F)(F)F)cc(C(F)(F)F)c1)c1ccc(Cl)cc1 | 17000 nM | 31.3 µM | 3420 nM | 12.4 µM | 15900 nM | 29.3 µM | 4740 nM | 17.1 µM | 1640 nM | 9.12 µM | 197 nM | 1.02 µM | 13600 nM | 29.6 µM | 271 nM | 1.74 µM | 18600 nM | 33.7 µM | 2020 nM | 5.32 µM
10 | CC(CN(C)C)/C(=N\Nc1ccccc1)c1ccccc1 (stereo not drawn) |  | 23.4 µM |  | 25.1 µM |  | > 100 µM |  | 5.79 µM |  | 14 µM |  | 67.6 µM |  | 0.358 µM |  | 29.3 µM |  | 5.45 µM |  | 23.1 µM
11 | O=C(O)CC[C@H](NC(=O)c1ccc(-n2nc3ccc(O)cc3nc2=O)cc1)C(=O)O |  | > 100 µM |  | > 100 µM |  | > 100 µM |  | > 100 µM |  | > 100 µM |  | > 100 µM |  | > 100 µM |  | > 100 µM |  | > 100 µM |  | > 100 µM
12 | Cc1cc(NCCCN(C)C)c2ccc3c(ccc4c(NCCCN(C)C)cc(C)nc43)c2n1 | 230 nM | 0.673 µM | 202 nM | 0.554 µM | 189 nM | 0.409 µM | 187 nM | 0.413 µM | 270 nM |  | 48.9 nM | 0.147 µM | 205 nM | 0.745 µM | 158 nM | 0.478 µM | 246 nM | 0.909 µM | 354 nM | > 100 µM
13 | CN(C)CCN1C(=O)c2c(c3c4ccccc4n4c3c3c2c2ccccc2n3C2CC(O)C(O)C4(C)O2)C1=O (stereo not drawn) | 1810 nM | 9.75 µM | 855 nM | 3.66 µM | 1240 nM | 7.88 µM | 3020 nM | 10.4 µM | 209 nM | 10.9 µM | 1580 nM | 7.82 µM | 1450 nM | 16.6 µM | 1590 nM | 14.4 µM | 4430 nM | 27.6 µM | 207 nM | 6.17 µM
14 | O=C(C/C(=N/O)C(=O)NC1=C(Cl)C(=O)c2ccccc2C1=O)CC(c1ccccc1)c1c(O)c2ccccc2oc1=O (stereo not drawn) |  | 72.1 µM |  | 52.9 µM |  | > 100 µM |  | > 100 µM |  | > 100 µM |  | > 100 µM |  | 22.8 µM |  | > 100 µM |  | 32.8 µM |  | > 100 µM
15 | O=C1OCC2=C1C(c1cccc(Cl)c1)c1cc3c(cc1N2CCO)OCCO3 (stereo not drawn) | 97 nM | > 57.2 µM | 20.4 nM | 0.0608 µM | 26.5 nM | 0.58 µM | 83.9 nM | > 100 µM | 348 nM | > 100 µM | 129 nM | 19.2 µM | 40.3 nM | 3.25 µM | 112 nM | > 100 µM | 539 nM | > 100 µM | 58.1 nM | 67.4 µM
